In patent US9822147B2, “Methods of treating ophthalmic diseases using NPR-B agonists” (priority 2009, dated 2017) one finds EC50 data, which are given here for seven molecules.

Numbered stars: 1 amine (or outer) side, 2 acyl side, 3 side chain; on linkers, the order of the positions; unused ones are H or OH. Square brackets hold non-standard residues; d marks the D form. Peptide text beside a SMILES is read from it. * marks the point of attachment. X3 = NCCN[C@@H]1C[C@@H](C(=O)[*:2])N([*:1])C1; Phe(3-Cl) = N[C@@H](Cc1cccc(Cl)c1)C(=O)O; X2 = O=C([C@H]1CCCN([*:1])C1)[*:2]; Hyp = O=C(O)[C@@H]1C[C@@H](O)CN1; NHcycloheptyl = C1CCCC(N*)CC1; NMeL = CN[C@@H](CC(C)C)C(=O)O; X6 = C[C@@H]1CCCC[C@H]1N*; Octanoyl = CCCCCCCC(=O)*; tBu = CC(C)(C)*

The target of the first experiment is T1, NPR-B (Homo sapiens, UniProt P20594).
T1 construct: a functional assay using endogenously NPR-B expressing GTM-3 cells; endogenous in cells; host or cells: GTM-3 (human glaucoma trabecular meshwork cells)
T1 sequence (P20594 23-1047): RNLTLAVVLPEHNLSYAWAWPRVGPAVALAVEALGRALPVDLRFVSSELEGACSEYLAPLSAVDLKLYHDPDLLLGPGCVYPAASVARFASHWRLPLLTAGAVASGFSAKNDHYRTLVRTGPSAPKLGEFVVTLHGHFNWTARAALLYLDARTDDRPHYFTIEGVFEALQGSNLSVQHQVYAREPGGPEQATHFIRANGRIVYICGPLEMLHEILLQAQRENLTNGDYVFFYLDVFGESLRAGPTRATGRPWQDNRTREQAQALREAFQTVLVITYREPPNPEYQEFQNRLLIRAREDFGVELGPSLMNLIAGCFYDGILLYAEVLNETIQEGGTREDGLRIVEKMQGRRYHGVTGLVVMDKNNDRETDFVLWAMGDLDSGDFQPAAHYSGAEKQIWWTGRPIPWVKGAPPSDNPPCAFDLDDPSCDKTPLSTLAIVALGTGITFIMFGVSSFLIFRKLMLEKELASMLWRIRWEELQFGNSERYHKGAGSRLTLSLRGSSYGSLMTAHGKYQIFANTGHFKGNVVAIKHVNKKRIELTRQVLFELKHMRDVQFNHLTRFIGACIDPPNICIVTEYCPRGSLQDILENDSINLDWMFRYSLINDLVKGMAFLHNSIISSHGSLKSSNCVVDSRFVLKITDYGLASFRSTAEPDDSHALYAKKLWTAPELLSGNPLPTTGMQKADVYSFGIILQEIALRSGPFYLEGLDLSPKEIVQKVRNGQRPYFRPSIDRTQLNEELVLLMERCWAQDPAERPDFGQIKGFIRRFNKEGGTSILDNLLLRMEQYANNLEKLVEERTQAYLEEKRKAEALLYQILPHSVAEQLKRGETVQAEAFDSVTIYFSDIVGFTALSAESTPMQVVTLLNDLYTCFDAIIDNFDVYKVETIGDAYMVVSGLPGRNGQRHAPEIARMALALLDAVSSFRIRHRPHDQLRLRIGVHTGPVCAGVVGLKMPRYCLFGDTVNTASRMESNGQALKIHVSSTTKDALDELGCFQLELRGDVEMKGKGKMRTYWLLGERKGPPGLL
Put plainly: NPR-B induced production of cyclic GMP in human glaucoma trabecular meshwork cells (GTM-3). Type of experiment: cell-based.
Conditions: not given
`CCCCCCCC(=O)N[C@H](C)C(=O)N[C@@H](Cc1ccccc1)C(=O)NCC(=O)N[C@@H](CC(C)C)C(=O)N1C[C@H](N)C[C@H]1C(=O)N[C@@H](CC(C)C)C(=O)N[C@@H](CC(=O)O)C(=O)N[C@@H](CCCNC(=N)N)C(=O)N[C@H](C(N)=O)[C@@H](C)CC` [JAL-1249, Occ-ala-Phe-Gly-Leu-Tap-Leu-Asp-Arg-Ile-NH2] (HELM PEPTIDE1{[CCCCCCCC(=O)[*:2]].[dA].F.G.L.[N[C@@H]1C[C@@H](C(=O)[*:2])N([*:1])C1].L.D.R.I.[am]}$$$$V2.0): the EC50 was < 1 µM.

The experiment is the same for the next values; noted with them: group by EC50 and Emax (CNP = 100%); Table 4; read-out: Activity (group), NPR-B activation assayed with GTM-3 cells.
For the molecule `CCCCCCCC(=O)N1CCC[C@H](C(=O)N[C@@H](Cc2ccccc2)C(=O)N[C@H](CSC(C)(C)C)C(=O)N[C@@H](CC(C)C)C(=O)N2C[C@H](O)C[C@H]2C(=O)N(C)[C@@H](CC(C)C)C(=O)N[C@@H](CC(=O)O)C(=O)N[C@@H](CCCNC(=N)N)C(=O)N[C@H](C(N)=O)[C@@H](C)CC)C1` [JAL-1623, Occ-Sni-Phe-ctb-Leu-Hyp-Nml-Asp-Arg-Ile-NH2] (Octanoyl-[X2]F[dC](tBu)L[Hyp][NMeL]DRI-NH2), the EC50 is < 1 µM.
Same read-out and setting: then `CCCCCCCC(=O)N[C@H](C)C(=O)N[C@@H](Cc1ccc(Cl)cc1)C(=O)N[C@H](CC(C)C)C(=O)N[C@@H](CC(C)C)C(=O)N1C[C@H](O)C[C@H]1C(=O)N[C@@H](CC(C)C)C(=O)N[C@@H](CC(=O)O)C(=O)N[C@@H](CCCNC(=N)N)C(=O)N[C@H](C(N)=O)[C@@H](C)CC` [JAL-1050, Occ-ala-Pcf-leu-Leu-Hyp-Leu-Asp-Arg-Ile-NH2] (HELM PEPTIDE1{[CCCCCCCC(=O)[*:2]].[dA].[O=C([C@H](Cc1ccc(Cl)cc1)N[*:1])[*:2]].[dL].L.[Hyp].L.D.R.I.[am]}$$$$V2.0), with < 1 µM; and `CCCCCCCC(=O)N1CCC[C@H](C(=O)N[C@@H](Cc2ccccc2)C(=O)N[C@H](CC(C)C)C(=O)N[C@@H](CC(C)C)C(=O)N2C[C@H](O)C[C@H]2C(=O)N(C)[C@@H](CC(C)C)C(=O)N[C@@H](CC(=O)O)C(=O)N2CCC[C@H]2C(=O)N[C@@H]2CCCC[C@H]2C)C1` [JAL-1510, Occ-Sni-Phe-leu-Leu-Hyp-Nml-Asp-Pro-1860] (Octanoyl-[X2]F[dL]L[Hyp][NMeL]DP-X6), with < 1 µM; and `CCCCCCCC(=O)N[C@H](C)C(=O)N[C@@H](Cc1ccccc1)C(=O)N[C@H](CO)C(=O)N[C@@H](CC(C)C)C(=O)N1C[C@H](O)C[C@H]1C(=O)N(C)[C@@H](CC(C)C)C(=O)N[C@@H](CC(=O)O)C(=O)N[C@@H](CCCNC(=N)N)C(=O)N[C@H](C(N)=O)[C@@H](C)CC` [JAL-1252, Occ-ala-Phe-ser-Leu-Hyp-Nml-Asp-Arg-Ile-NH2] (HELM PEPTIDE1{[CCCCCCCC(=O)[*:2]].[dA].F.[dS].L.[Hyp].[meL].D.R.I.[am]}$$$$V2.0), with < 1 µM.
On to `CCCCCCCC(=O)N1CCC[C@H](C(=O)N[C@@H](Cc2ccccc2)C(=O)N[C@H](CC(C)C)C(=O)N[C@@H](CC(C)C)C(=O)N2C[C@H](NCCN)C[C@H]2C(=O)N(C)[C@@H](CC(C)C)C(=O)N[C@@H](CC(=O)O)C(=O)N[C@@H](CCCNC(=N)N)C(=O)NC2CCCCCC2)C1` [JAL-1681, Occ-Sni-Phe-leu-Leu-Tap(Ae)-Nml-Asp-Arg-Che] (Octanoyl-[X2]F[dL]L[X3][NMeL]DR-NHcycloheptyl), for which the EC50 was < 1 µM.
Same read-out and setting: then `CCCCCCCC(=O)N1CCC[C@H](C(=O)N[C@@H](Cc2cccc(Cl)c2)C(=O)N[C@H](CC(C)C)C(=O)N[C@@H](CC(C)C)C(=O)N2C[C@H](O)C[C@H]2C(=O)N(C)[C@@H](CC(C)C)C(=O)N[C@@H](CC(=O)O)C(=O)N[C@@H](CCCNC(=N)N)C(=O)N[C@H](C(N)=O)[C@@H](C)CC)C1` [JAL-1618, Occ-Sni-Mcf-leu-Leu-Hyp-Nml-Asp-Arg-Ile-NH2] (Octanoyl-[X2][Phe(3-Cl)][dL]L[Hyp][NMeL]DRI-NH2), with < 1 µM.
